Laboratory results from patent EP4035684A1, “AFFINITY ILLUDOFULVENE CONJUGATES” (AF Chemical LLC, priority 2019, dated 2022).
Where two headings read alike, the source gives them in different places. Where a SMILES comes first, the peptide text is derived from it. [ ]: non-standard residue; d: D form. The star is where a group is joined. Dolaproine = CO[C@@H]([C@@H]1CCCN1)[C@@H](C)C(=O)O; Dil = CC[C@H](C)[C@H](NC)[C@@H](CC(=O)O)OC; X1 = C[C@@H](N*)[C@@H](O)c1ccccc1; NMeV = CN[C@H](C(=O)O)C(C)C

Assays:
NCI 60 cell line panel = test: NCI DTP 60 cell line screen assay; details: for Cytotoxicity: ability to actually kill tumor cells versus only inhibiting growth
Excerpt: An ADC is engulfed by a tumor cell, transported to the endosomes (pH < 6.0) and then into the lysozomes (pH < 4). […] 4) Cancer cells can become resistant to various toxins and drugs through the development of what is termed multi-drug resistance. This process is known to occur through several different mechanisms.

8392B cell line [1] = test: Two hour toxicity: inhibition of DNA synthesis activity, nontarget cell line; type: cell-based
MV522 cell line = test: cells; type: cell-based
8392B cell line [2] = test: cells; type: cell-based; details: read-out: Mean IC50 value (nM) ± SD, N=3 unless otherwise indicated, 8392B Nontarget Cell Line, 48 hr exposure, 8392B nontarget cell line, mean ± SD, N=3 unless otherwise indicated
[3] = read-out: Mean IC50 value (nM) ± SD, N=3 unless otherwise indicated, 8392B Nontarget Cell Line, 2 hr exposure, 8392B nontarget cell line, 2 hr exposure, mean ± SD, N=3 unless otherwise indicated
[4] = read-out: Mean IC50 value (nM) ± SD, N=3 unless otherwise indicated, MV522 Target Cell Line, 2 hr exposure, MV522 target cell line, 2 hr exposure, mean ± SD, N=3 unless otherwise indicated

Compound	IC50 (8392B cell line [1]; [3]) [nM]	IC50 (8392B cell line [2]) [nM]	other results
COc1cc2cc(c1Cl)N(C)C(=O)C[C@H](OC(=O)[C@H](C)N(C)C(=O)CCS)[C@]1(C)O[C@H]1[C@H](C)[C@@H]1C[C@@](O)(NC(=O)O1)[C@H](OC)/C=C/C=C(\C)C2 [DM1, reference compound]			Cytotoxicity (NCI 60 cell line panel): not cytotoxic and No
C/C(=C\c1csc(C)n1)[C@@H]1C[C@@H]2O[C@@H]2CCC[C@H](C)[C@H](O)[C@@H](C)C(=O)C(C)(C)[C@@H](O)CC(=O)O1 [Epothilone A, reference compound]			Cytotoxicity (NCI 60 cell line panel): not cytotoxic and No
CC[C@H](C)[C@@H]([C@@H](CC(=O)N1CCC[C@H]1[C@H](OC)[C@@H](C)C(=O)N[C@H](C)[C@@H](O)c1ccccc1)OC)N(C)C(=O)[C@@H](NC(=O)[C@@H](NC)C(C)C)C(C)C [MMAE, N-methylvaline-valine-dolaisoleuine-dolaproine-norephedrine, reference compound] (H-[NMeV]V[Dil][Dolaproine]-X1)			MDR Activity (NCI 60 cell line panel): No; MDR Activity (NCI 60 cell line panel; listed as MMA): not MDR active; Cytotoxicity (NCI 60 cell line panel): No; Cytotoxicity (NCI 60 cell line panel; listed as MMA): not cytotoxic
CC1=C(CO)C2=C(C)C3(CC3)[C@@](C)(O)C(=O)C2=C1 [analog 002, (6'R)-6'-hydroxy-3'-(hydroxymethyl)-2',4',6'-trimethylspiro[cyclopropane-1,5'-inden]-7'(6'H)-one]			IC50 (8392B cell line [1]; 2 hour exposure, nontarget cell line, read-out: IC50 8392B): > 26000 nM; IC50 (MV522 cell line; MV522, 2 h, read-out: IC50 MV522): 110 nM
CC1=CC2=C(C)C3(CC3)[C@@](C)(O)/C(=N/O)C2=C1 [analog 224, (R,E)-6'-hydroxy-2',4',6'-trimethylspiro[cyclopropane-1,5 '-inden]-7'(6'H)-one oxime]			toxicity (MV522 cell line; target and nontarget cell line, in words): minimal toxicity
CC(=O)OC[C@]1(C)C=C2C(=O)[C@](C)(O)C3(CC3)C(C)=C2[C@H]1OC(=O)N(C)CCN(C)C(=O)OC(C)(C)C [analog 334, ((2'S,3'R,6'R)-3'-(((2-((tert-butoxycarbonyl)(methyl)amino)ethyl)(methyl)carbamoyl)oxy)-6'-hydroxy-2',4',6'-trimethyl-7'-oxo-2',3',6',7'-tetrahydrospiro[cyclopropane-1,5' - inden]-2' - yl)methylacetate]			Cytotoxicity (NCI 60 cell line panel): cytotoxic
CC1=C2C(=C[C@@](C)(COS(C)(=O)=O)[C@@H]2O)C(=O)[C@](C)(O)C12CC2 [analog 362, ((2'S,3'R,6'R)-3',6'-dihydroxy-2',4',6'-trimethyl-7'-oxo-2',3',6',7'-tetrahydrospiro[cyclopropane-1,5'-inden]-2'-yl)methyl methanesulfonate]			Cytotoxicity (NCI 60 cell line panel): cytotoxic
CC(=O)O[C@@H]1C2=C(C)C3(CC3)[C@@](C)(O)C(=O)C2=C[C@@]1(C)CO [analog 371, (2'S,3'R,6'R)-6'-hydroxy-2'-(hydroxymethyl)-2',4',6'-trimethyl-7'-oxo-2',3',6',7'-tetrahydrospiro[cyclopropane-1,5'-inden]-3'-yl acetate]			Cytotoxicity (NCI 60 cell line panel): cytotoxic
CC1=C2C(=C[C@@](C)(C=O)[C@@H]2O)C(=O)[C@](C)(O)C12CC2 [analog 383, (2'R,3'R,6'R)-3',6'-dihydroxy-2',4',6'-trimethyl-7'-oxo-2',3',6',7'-tetrahydrospiro[cyclopropane-1,5'-indene]-2'-carbaldehyde]			Cytotoxicity (NCI 60 cell line panel): cytotoxic
CC1=C(CNO)C2=C(C)C3(CC3)[C@@](C)(O)C(=O)C2=C1 [analog 394, (R)-6'-hydroxy-3'-((hydroxyamino)methyl)-2',4',6'-trimethylspiro[cyclopropane-1,5'-inden]-7'(6'H)-one]			Cytotoxicity (NCI 60 cell line panel): cytotoxic
CC1=C(COCCBr)C2=C(C)C3(CC3)[C@@](C)(O)C(=O)C2=C1 [compound 020]	25000 ± 3100		IC50 (MV522 cell line; [4]): 530 ± 140 nM
CC(=O)ON(C(C)=O)c1ccc(C(=O)OC[C@]2(C)C=C3C(=O)[C@](C)(O)C4(CC4)C(C)=C3C2O)cc1 (stereo partly shown) [compound 136]	> 6200		
CC1=C(CSc2nc3ccccc3s2)C2=C(C)C3(CC3)[C@@](C)(O)C(=O)C2=C1 [compound 147]	> 76000		IC50 (MV522 cell line; [4]): > 76000 nM
CC1=C(CSc2nc(O)c3nccnc3n2)C2=C(C)C3(CC3)[C@@](C)(O)C(=O)C2=C1 [compound 153]	> 90000		
CC1=C(CSc2nnnn2-c2ccc(O)cc2)C2=C(C)C3(CC3)[C@@](C)(O)C(=O)C2=C1 [compound 154]	> 70000		IC50 (MV522 cell line; [4]): > 70000 nM
CC1=C(CCCOC(=O)C(N)CC(C)C)C2=C(C)C3(CC3)[C@@](C)(O)C(=O)C2=C1 (stereo partly shown) [compound 176]			MDR Activity (NCI 60 cell line panel): Yes; Cytotoxicity (NCI 60 cell line panel): Yes
CC1=C(CN=[N+]=[N-])C2=C(C)C3(CC3)[C@@](C)(O)C(=O)C2=C1 [compound 193]		> 11000	
CC1=C(CCCOC(=O)[C@@H]2CCCN2)C2=C(C)C3(CC3)[C@@](C)(O)C(=O)C2=C1 [compound 196]		> 9200	
CC1=C(COc2ccc([N+](=O)[O-])cc2)C2=C(C)C3(CC3)[C@@](C)(O)C(=O)C2=C1 [compound 198]	> 8200	> 82000	
CC1=C(COc2ccccc2)C2=C(C)C3(CC3)[C@@](C)(O)C(=O)C2=C1 [compound 199]	> 93000	> 9300	
CC1=C(CCCNC(=O)[C@@H]2CCCN2)C2=C(C)C3(CC3)[C@@](C)(O)C(=O)C2=C1 [compound 202]	> 62000	> 6200	
CC1=C(CCCOC(=O)[C@@H]2CCCN2C(=O)[C@@H](N)CO)C2=C(C)C3(CC3)[C@@](C)(O)C(=O)C2=C1 [compound 203]		> 5500	
CC1=C(CCCOC(=O)[C@@H]2CCCN2C(=O)[C@H](CO)NC(=O)[C@@H](N)CO)C2=C(C)C3(CC3)[C@@](C)(O)C(=O)C2=C1 [compound 209]	> 90000		
CC1=C(COC(=O)CCCCCN2C(=O)C=CC2=O)C2=C(C)C3(CC3)[C@@](C)(O)C(=O)C2=C1 [compound 217]		> 7000	

Compound	IC50 (8392B cell line [1]; [3]) [nM]	IC50 (8392B cell line [2]) [nM]	other results
CC1=C2C(=CC(C)(C)C2OC(=O)c2ccc(S(=O)(=O)F)cc2)C(=O)C(C)(O)C12CC2 (stereo not shown) [compound 222]	9300		
CCCCCCCC/C=C/CCCCCCCC(=O)OCCCC1=C(C)C=C2C(=O)[C@](C)(O)C3(CC3)C(C)=C21 [compound 227]	> 57000		IC50 (MV522 cell line; [4]): > 57000 nM
CC(=O)ON(C(C)=O)C(=O)OCCCC1=C(C)C=C2C(=O)[C@](C)(O)C3(CC3)C(C)=C21 [compound 240]	> 24000		
CC1=C([C@@H]2CCOS(=O)(=O)N2)C2=C(C)C3(CC3)[C@@](C)(O)C(=O)C2=C1 [compound 259]	> 85000		
CC1=C(CCCNC(=O)N2CCC(N3CCCCC3)CC2)C2=C(C)C3(CC3)[C@@](C)(O)C(=O)C2=C1 [compound 260]	> 64000		
COC(=O)C[S+]([O-])CC1=C(C)C=C2C(=O)[C@](C)(O)C3(CC3)C(C)=C21 (stereo partly shown) [compound 263]	124000 ± 18000		
CON(CC1=C(C)C=C2C(=O)[C@](C)(O)C3(CC3)C(C)=C21)C(=O)CN [compound 267]	> 90000		
CC1=C(CCCNC(=O)C(F)(F)F)C2=C(C)C3(CC3)[C@@](C)(O)C(=O)C2=C1 [compound 268]		> 8000	
COc1ccc(NS(=O)(=O)OCC2=C(C)C=C3C(=O)[C@](C)(O)C4(CC4)C(C)=C32)cc1 [compound 269]		> 7000	
CC1=C(CN)C2=C(C)C3(CC3)[C@@](C)(O)C(=O)C2=C1 [compound 270]	> 84000		
CC1=C(CNS(C)(=O)=O)C2=C(C)C3(CC3)[C@@](C)(O)C(=O)C2=C1 [compound 271]	> 93000	> 9300	
CC1=C(CCCNC(=O)OCC2=C(C(=O)O)N3C(=O)[C@H](NC(=O)Cc4cccs4)[C@@H]3S(=O)(=O)C2)C2=C(C)C3(CC3)[C@@](C)(O)C(=O)C2=C1 [compound 274]	> 46000	> 4500	
CC1=C(CNC(=O)C2CCCN2)C2=C(C)C3(CC3)[C@@](C)(O)C(=O)C2=C1 (stereo partly shown) [compound 275]	> 62000	> 6200	
CC1=C(CNC(=O)C(N)CC(C)C)C2=C(C)C3(CC3)[C@@](C)(O)C(=O)C2=C1 (stereo partly shown) [compound 276]	> 61000	> 6100	
CONC(=O)NCC1=C(C)C=C2C(=O)[C@](C)(O)C3(CC3)C(C)=C21 [compound 278]	> 94000	> 9400	
CC1=C(CNS(N)(=O)=O)C2=CC3(CC3)C(C)(O)C(=O)C2=C1 (stereo not shown) [compound 283]		> 9300	
CC1=C(Cn2c(=O)cc[nH]c2=O)C2=C(C)C3(CC3)[C@@](C)(O)C(=O)C2=C1 [compound 284]		> 8800	
CC1=C(Cn2cc(F)c(=O)[nH]c2=O)C2=C(C)C3(CC3)[C@@](C)(O)C(=O)C2=C1 [compound 286]		> 8800	
CC1=C(CCCOC(=O)CNC(=O)OC(C)(C)C)C2=C(C)C3(CC3)[C@@](C)(O)C(=O)C2=C1 [compound 298]			IC50 (MV522 cell line; [4]): > 7000 nM
CC(=O)OC[C@]1(C)C=C2C(=O)[C@](C)(O)C3(CC3)C(C)=C2[C@H]1OC(=O)N(C)CCN(C)C(=O)OC(C)(C)C [compound 334]			MDR Activity (NCI 60 cell line panel): Yes; Cytotoxicity (NCI 60 cell line panel): Yes
CC1=C2C(=C[C@@](C)(COS(C)(=O)=O)[C@@H]2O)C(=O)[C@](C)(O)C12CC2 [compound 362]			MDR Activity (NCI 60 cell line panel): Yes; Cytotoxicity (NCI 60 cell line panel): Yes
CC(=O)O[C@@H]1C2=C(C)C3(CC3)[C@@](C)(O)C(=O)C2=C[C@@]1(C)CO [compound 371]			MDR Activity (NCI 60 cell line panel): Yes; Cytotoxicity (NCI 60 cell line panel): Yes
CC1=C2C(=C[C@@](C)(C=O)[C@@H]2O)C(=O)[C@](C)(O)C12CC2 [compound 383]			MDR Activity (NCI 60 cell line panel): Yes; Cytotoxicity (NCI 60 cell line panel): Yes
CC1=C(CNO)C2=C(C)C3(CC3)[C@@](C)(O)C(=O)C2=C1 [compound 394]			MDR Activity (NCI 60 cell line panel): Yes; Cytotoxicity (NCI 60 cell line panel): Yes
